We go through 1 molecule from publication PMC8150775, “Repositioning Azelnidipine as a Dual Inhibitor Targeting CD47/SIRPα and TIGIT/PVR Pathways for Cancer Immuno-Therapy” (Biomolecules, 2021).

SMILES strings stand for the structures.

Experiment [1] deals with MC38 tumors. Description: MC38 tumor model, alone or combined with radiotherapy, with ex vivo analysis. It counts as in vivo, C57BL/6 mice. As for the experimental part:
BABL/c mice were subcutaneously (s.c.) injected with 2 × 10^5 CT26 cells on the right back, and C57BL/6 mice were injected with 1 × 10^6 MC38 cells. One week later, tumor-bearing mice were randomized into indicated groups, and intraperitoneal (i.p.) injected with azelnidipine or normal saline every day for two weeks. Tumor volumes were measured every other day by the (a) length, (b) width, and (c) height and calculated as volume (V) = a × b × c/2. For the combinational model of azelnidipine and radiotherapy (RT), MC38 tumor-bearing mice received irradiation (IR) when the tumors reached 80–100 mm^3. The mice received one dose of 20 Gy irradiation at the tumor local site, and followed by the treatment of azelnidipine.
Tumor-bearing mice were sacrificed at the end of the treatment. The tumors were dissected and digested into single cell with an enzyme cocktail of 100 U/mL collagenase IV; and Dnase I. The infiltration of CD8^+ T cells at the tumor site was detected by flow cytometry by staining of anti-mouse CD45, anti-mouse CD3, anti-mouse CD8α or isotype control. The MDSCs at the tumor site were analyzed by staining of anti-mouse CD45, anti-mouse CD11b, anti-mouse Ly6C, and anti-mouse Ly6G. […] The frequency of IFN-γ secreting CD8^+ T cells were counted according to the fluorescence minus one (FMO) control with the isotype control of IFN-γ antibody. […]

The target of experiment [2] is T1, TIGIT/PVR interaction (Homo sapiens, UniProt P15151).
T1 construct: purchased ACRO Biosystem CD5-H82F6; host or cells: CHOK1-TIGIT cells (lenti-viral transfection)
T1 sequence (P15151 21-343 limits assumed): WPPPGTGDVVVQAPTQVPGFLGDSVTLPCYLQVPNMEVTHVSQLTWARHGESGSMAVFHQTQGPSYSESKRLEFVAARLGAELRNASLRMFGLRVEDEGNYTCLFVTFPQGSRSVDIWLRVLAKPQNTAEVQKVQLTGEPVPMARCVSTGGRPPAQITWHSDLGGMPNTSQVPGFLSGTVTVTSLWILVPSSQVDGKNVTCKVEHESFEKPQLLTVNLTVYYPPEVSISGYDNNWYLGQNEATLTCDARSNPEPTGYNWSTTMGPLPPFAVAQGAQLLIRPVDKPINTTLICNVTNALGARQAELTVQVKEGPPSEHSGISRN
Description: Blocking assay by flow cytometry, preliminary screening at a single concentration, TIGIT/PVR. The following applies: preliminary test, single concentration of 100 μM. It counts as binding. As for the experimental part: The abilities of small molecule inhibitors (SMIs) (purchased from TargetMol, Shanghai, China) to block the binding of SIRPα protein to CHOK1-CD47 cells or PVR protein to CHOK1-TIGIT cells were determined by flow cytometry, as previously reported. The SMIs at indicated concentrations were incubated with Fc-tagged SIRPα or PVR protein for 30 min at 4°C, followed by incubating with the indicated cells for another 30 min. Human SIRPα protein (SIA-H5251, ACRO Biosystem, Beijing, China), mouse SIRPα protein (SIA-M5258, ACRO Biosystem, Beijing, China), human PVR protein (CD5-H82F6, ACRO Biosystem, Beijing, China), and mouse PVR protein (50259-M03H, Sino Biological, Beijing, China) were used. PE-conjugated anti-human IgG antibody was used to detect the Fc protein bind to cells. Cells incubated with the Fc proteins and anti-human IgG antibody without the SMIs serve as the positive control. The mean fluorescent intensity (MFI) of each sample was detected and recorded by a flow cytometry. The blocking efficacy of the SMIs was calculated as the equation: (MFI of the positive control-MFI of the SMI)/MFI of the positive control × 100%.
The small molecule inhibitor could not only bind to the target; most importantly, it should interfere with the receptor–ligand interactions. Subsequently, the candidate inhibitors were screened by the blocking assays with the established CD47 and TIGIT over-expressing cell lines. The test was initialed with a preliminary screening of the candidates with a single concentration (Figure 2D). Generally, the SMI blocking efficacy to the CD47/SIRPα interaction was much higher than that of the TIGIT/PVR. […] Therefore, the SMI-F11 and SMI-F17 may exert dual blocking effects in the CD47/SIRPα and TIGIT/PVR pathways. Blocking assays with a concentration gradient of the SMI were further performed to validate the preliminary screening. […] The similar blocking assays with the mouse CD47 and TIGIT over-expressing cells were also performed. […] Considering that most pairs of the immune checkpoints interact with the corresponding ligand in parallel forms, the blocking assays with the PD-1/PD-L1 interaction system was also conducted to test the specificity.

In the case of `CC1=C(C(=O)OC(C)C)C(c2cccc([N+](=O)[O-])c2)C(C(=O)OC2CN(C(c3ccccc3)c3ccccc3)C2)=C(N)N1` (stereo not drawn) [Azelnidipine], the “growth of MC38 tumors, combination with IR” value in experiment [1] (5 mg/kg i.p. each day combined with 20 Gy local IR) is “remarkably suppress tumor growth”. In addition, the “growth of MC38 tumors” value in experiment [1] (2 and 5 mg/kg i.p. each day for 2 weeks, alone) is “significantly restrict”. Further, the “activity in interfering with the TIGIT/PVR interaction” value in experiment [2] is “better activities”.
